In ChEMBL document CHEMBL4145533, “6,7-Dimorpholinoalkoxy quinazoline derivatives as potent EGFR inhibitors with enhanced antiproliferative activities against tumor cells” (Eur J Med Chem, 2018):

Key:
A-431 = assay: Antiproliferative activity against human A431 cells harboring wild type EGFR after 72 hrs by MTT assay; format: functional, cell-based; details: A-431, 72 h
A549 [1] = assay: Antiproliferative activity against human A549 cells harboring wild type EGFR/K-ras mutant after 72 hrs by MTT assay; format: functional, cell-based; details: A549, 72 h
HCC827 = assay: Antiproliferative activity against human HCC827 cells harboring EGFR E746-A750 del mutant after 72 hrs by MTT assay; format: functional, cell-based; details: HCC827, 72 h
NCI-H1975 = assay: Antiproliferative activity against human NCI-H1975 cells harboring EGFR L858R/T790M double mutant after 72 hrs by MTT assay; format: functional, cell-based; details: NCI-H1975, 72 h
SW480 = assay: Antiproliferative activity against human SW480 cells harboring wild type EGFR after 72 hrs by MTT assay; format: functional, cell-based; details: SW480, 72 h
A549 [2] = assay: Induction of apoptosis in human A549 cells assessed as viable cells at 15 uM after 48 hrs by Annexin V-FITC/propidium iodide satining based FACS analysis (reference value: 95.87%); format: functional; details: A549, 48 h, read-out: Activity
A549 [3] = assay: Induction of apoptosis in human A549 cells assessed as early apoptotic cells at 15 uM after 48 hrs by Annexin V-FITC/propidium iodide satining based FACS analysis (reference value: 2.78%); format: functional
A549 [4] = assay: Induction of apoptosis in human A549 cells assessed as late apoptotic cells at 15 uM after 48 hrs by Annexin V-FITC/propidium iodide satining based FACS analysis (reference value: 1.21%); format: functional
A549 [5] = assay: Induction of apoptosis in human A549 cells assessed as necrotic cells at 15 uM after 48 hrs by Annexin V-FITC/propidium iodide satining based FACS analysis (reference value: 0.14%); format: functional
A549 [6] = assay: Cell cycle arrest in human A549 cells assessed as accumulation at G0/G1 phase at 15 uM after 48 hrs by propidium iodide satining based FACS analysis (reference value: 48.87%); format: functional
A549 [7] = assay: Cell cycle arrest in human A549 cells assessed as accumulation at S phase at 15 uM after 48 hrs by propidium iodide satining based FACS analysis (reference value: 34.45%); format: functional
[8] = molecular target: Epidermal growth factor receptor (Homo sapiens, UniProt P00533, L858R); assay: Inhibition of EGFR L858R mutant (unknown origin) using ULight-poly GT as substrate preincubated for 120 mins followed by substrate addition measured after 2 hrs by spectrophotometric method
Sequence of Epidermal growth factor receptor (Homo sapiens, UniProt P00533, L858R) (P00533 25-1210 L858R limits assumed): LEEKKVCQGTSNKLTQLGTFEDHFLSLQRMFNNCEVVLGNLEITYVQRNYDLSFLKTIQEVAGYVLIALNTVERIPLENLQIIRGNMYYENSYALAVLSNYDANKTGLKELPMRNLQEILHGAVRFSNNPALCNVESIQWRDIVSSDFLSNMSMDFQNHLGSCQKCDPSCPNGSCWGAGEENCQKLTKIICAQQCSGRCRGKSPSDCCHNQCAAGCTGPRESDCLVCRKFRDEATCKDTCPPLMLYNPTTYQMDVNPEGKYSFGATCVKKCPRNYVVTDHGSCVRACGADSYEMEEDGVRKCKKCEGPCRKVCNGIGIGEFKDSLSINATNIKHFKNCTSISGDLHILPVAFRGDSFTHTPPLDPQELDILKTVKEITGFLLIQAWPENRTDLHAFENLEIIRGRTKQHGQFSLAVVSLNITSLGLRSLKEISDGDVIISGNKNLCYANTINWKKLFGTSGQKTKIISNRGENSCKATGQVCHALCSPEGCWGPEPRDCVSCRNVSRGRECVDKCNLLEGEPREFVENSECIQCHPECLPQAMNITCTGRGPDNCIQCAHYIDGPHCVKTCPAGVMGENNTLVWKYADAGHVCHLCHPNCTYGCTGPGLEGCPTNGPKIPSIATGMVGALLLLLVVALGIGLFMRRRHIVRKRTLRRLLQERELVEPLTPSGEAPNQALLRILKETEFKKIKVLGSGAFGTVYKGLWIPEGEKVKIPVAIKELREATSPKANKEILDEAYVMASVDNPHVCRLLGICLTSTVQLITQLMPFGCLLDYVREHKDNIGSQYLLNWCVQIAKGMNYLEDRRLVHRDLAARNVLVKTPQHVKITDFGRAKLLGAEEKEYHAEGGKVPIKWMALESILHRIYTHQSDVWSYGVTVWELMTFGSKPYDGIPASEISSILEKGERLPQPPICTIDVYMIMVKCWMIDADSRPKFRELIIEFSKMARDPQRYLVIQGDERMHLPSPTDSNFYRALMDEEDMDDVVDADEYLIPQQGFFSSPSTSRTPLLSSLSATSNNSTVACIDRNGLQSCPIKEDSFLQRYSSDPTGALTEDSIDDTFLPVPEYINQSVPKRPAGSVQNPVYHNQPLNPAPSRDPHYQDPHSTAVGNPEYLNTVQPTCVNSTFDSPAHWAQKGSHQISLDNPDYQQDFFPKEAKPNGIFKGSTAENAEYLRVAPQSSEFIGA

[9] = molecular target: Epidermal growth factor receptor (Homo sapiens, UniProt P00533, L858R/T790M); assay: Inhibition of EGFR L858R/T790M double mutant (unknown origin) using ULight-poly GT as substrate preincubated for 30 mins followed by substrate addition measured after 1 hr by spectrophotometric method
Sequence of Epidermal growth factor receptor (Homo sapiens, UniProt P00533, L858R/T790M) (P00533 25-1210 T790M/L858R limits assumed): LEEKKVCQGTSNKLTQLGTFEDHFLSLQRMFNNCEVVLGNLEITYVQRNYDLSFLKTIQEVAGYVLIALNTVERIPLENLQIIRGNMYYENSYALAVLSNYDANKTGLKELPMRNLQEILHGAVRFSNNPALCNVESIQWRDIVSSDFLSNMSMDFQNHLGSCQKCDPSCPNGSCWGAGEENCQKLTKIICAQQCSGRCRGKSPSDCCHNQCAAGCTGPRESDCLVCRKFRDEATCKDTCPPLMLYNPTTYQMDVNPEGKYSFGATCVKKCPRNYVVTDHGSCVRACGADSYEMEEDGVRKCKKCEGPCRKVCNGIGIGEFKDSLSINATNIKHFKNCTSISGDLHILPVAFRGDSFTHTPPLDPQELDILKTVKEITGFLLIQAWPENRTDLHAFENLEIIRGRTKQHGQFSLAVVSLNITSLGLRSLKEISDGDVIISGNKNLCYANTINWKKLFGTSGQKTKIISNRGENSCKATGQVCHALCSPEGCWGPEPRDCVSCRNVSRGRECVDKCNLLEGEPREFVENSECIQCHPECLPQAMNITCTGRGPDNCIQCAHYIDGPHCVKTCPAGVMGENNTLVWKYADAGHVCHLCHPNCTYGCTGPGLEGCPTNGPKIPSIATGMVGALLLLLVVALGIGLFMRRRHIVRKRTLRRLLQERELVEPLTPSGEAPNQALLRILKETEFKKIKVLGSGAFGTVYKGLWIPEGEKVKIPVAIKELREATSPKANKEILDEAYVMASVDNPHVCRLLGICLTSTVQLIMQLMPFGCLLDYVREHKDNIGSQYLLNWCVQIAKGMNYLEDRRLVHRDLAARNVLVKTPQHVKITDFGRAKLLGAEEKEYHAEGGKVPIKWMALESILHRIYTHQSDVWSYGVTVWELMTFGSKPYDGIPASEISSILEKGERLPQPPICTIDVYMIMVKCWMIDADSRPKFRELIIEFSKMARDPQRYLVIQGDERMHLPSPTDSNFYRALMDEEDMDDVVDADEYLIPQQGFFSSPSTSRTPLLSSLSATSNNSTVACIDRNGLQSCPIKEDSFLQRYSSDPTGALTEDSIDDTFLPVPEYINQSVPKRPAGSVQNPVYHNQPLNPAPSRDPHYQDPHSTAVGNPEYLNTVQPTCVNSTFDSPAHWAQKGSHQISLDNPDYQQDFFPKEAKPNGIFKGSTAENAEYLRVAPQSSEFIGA

[10] = molecular target: Epidermal growth factor receptor (Homo sapiens, UniProt P00533, T790M); assay: Inhibition of EGFR T790M mutant (unknown origin) preincubated for 10 mins followed by TK substrate-botion addition measured after 1 hr by spectrophotometric method
Sequence of Epidermal growth factor receptor (Homo sapiens, UniProt P00533, T790M) (P00533 25-1210 T790M limits assumed): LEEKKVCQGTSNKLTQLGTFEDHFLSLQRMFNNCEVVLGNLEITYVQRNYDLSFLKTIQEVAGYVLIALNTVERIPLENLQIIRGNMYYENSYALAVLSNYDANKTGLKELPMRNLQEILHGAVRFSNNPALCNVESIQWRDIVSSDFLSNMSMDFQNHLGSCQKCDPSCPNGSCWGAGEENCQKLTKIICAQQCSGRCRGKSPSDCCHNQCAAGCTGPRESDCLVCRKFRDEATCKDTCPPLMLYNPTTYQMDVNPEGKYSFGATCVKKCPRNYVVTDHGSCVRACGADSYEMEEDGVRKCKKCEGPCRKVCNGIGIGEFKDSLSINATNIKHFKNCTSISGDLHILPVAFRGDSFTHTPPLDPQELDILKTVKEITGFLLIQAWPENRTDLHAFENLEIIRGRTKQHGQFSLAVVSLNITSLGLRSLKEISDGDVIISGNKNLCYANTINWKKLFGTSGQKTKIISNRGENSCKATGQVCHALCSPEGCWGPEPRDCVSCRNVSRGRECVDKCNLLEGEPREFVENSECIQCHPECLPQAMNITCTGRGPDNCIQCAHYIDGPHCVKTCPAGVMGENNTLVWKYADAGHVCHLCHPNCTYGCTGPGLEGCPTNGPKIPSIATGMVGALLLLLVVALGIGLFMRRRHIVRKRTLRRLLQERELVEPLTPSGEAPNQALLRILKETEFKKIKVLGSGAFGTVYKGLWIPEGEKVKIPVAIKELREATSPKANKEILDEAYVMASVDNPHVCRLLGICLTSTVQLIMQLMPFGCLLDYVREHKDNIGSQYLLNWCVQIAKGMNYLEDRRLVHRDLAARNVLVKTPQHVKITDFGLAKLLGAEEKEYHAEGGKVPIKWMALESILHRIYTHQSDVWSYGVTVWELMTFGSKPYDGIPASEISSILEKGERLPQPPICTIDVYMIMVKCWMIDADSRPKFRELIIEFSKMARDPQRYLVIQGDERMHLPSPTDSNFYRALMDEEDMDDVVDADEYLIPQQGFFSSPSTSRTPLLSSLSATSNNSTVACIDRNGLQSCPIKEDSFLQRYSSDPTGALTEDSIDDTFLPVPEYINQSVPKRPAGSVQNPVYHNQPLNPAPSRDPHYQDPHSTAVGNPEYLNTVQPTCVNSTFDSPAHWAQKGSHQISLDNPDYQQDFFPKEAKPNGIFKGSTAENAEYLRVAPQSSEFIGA

IC50 (A-431) [µM] | IC50 (A549 [1]) [µM] | IC50 (HCC827) [µM] | IC50 (NCI-H1975) [µM] | IC50 (SW480) [µM] | IC50 [8] [µM] | IC50 [9] [µM] | IC50 [10] [µM] | SMILES | viability at 15 µM (A549 [2]) [%] | Activity (A549 [3]) [%] | Activity (A549 [4]) [%] | Activity (A549 [5]) [%] | Activity (A549 [6]) [%] | Activity (A549 [7]) [%]
10.1 | 14.1 | 1.86 | 89.3 | 29.2 |  |  |  | C/C=C/c1ccc(Nc2ncnc3cc(OCCN4CCOCC4)c(OCCN4CCOCC4)cc23)cc1 |  |  |  |  |  | 
10.4 | 7.91 | 0.05 | 20.4 | 16.6 |  |  |  | Fc1ccc(Nc2ncnc3cc(OCCN4CCOCC4)c(OCCN4CCOCC4)cc23)cc1Cl |  |  |  |  |  | 
5.41 | 11.5 | 0.05 | 23.1 | 20.8 |  |  |  | C#Cc1cccc(Nc2ncnc3cc(OCCN4CCOCC4)c(OCCN4CCOCC4)cc23)c1 |  |  |  |  |  | 
4.8 | 14.9 | 0.6 | 12.7 | 12.6 |  |  |  | CS(=O)(=O)CCNCc1ccc(-c2ccc3ncnc(Nc4ccc(OCc5cccc(F)c5)c(Cl)c4)c3c2)o1 [LAPATINIB] | 87.7 | 4.56 | 6.27 | 1.5 | 67.5 | 23.89
1.35 | 8.83 | 0.29 | 5.53 | 6.08 | 0.235 | > 2 | > 1 | C/C=C/c1ccc(Nc2ncnc3cc(OCCCN4CCOCC4)c(OCCCN4CCOCC4)cc23)cc1 |  |  |  |  |  | 
2.01 | 3.03 | 0.0078 | 4.45 | 3.54 |  |  |  | Fc1ccc(Nc2ncnc3cc(OCCCN4CCOCC4)c(OCCCN4CCOCC4)cc23)cc1Cl |  |  |  |  |  | 
3.62 | 5.81 | 0.32 | 12.2 | 8.82 |  |  |  | Fc1cccc(COc2ccc(Nc3ncnc4cc(OCCN5CCOCC5)c(OCCN5CCOCC5)cc34)cc2Cl)c1 |  |  |  |  |  | 
1.56 | 3.97 | 0.0066 | 3.1 | 5.39 |  |  |  | C#Cc1cccc(Nc2ncnc3cc(OCCCN4CCOCC4)c(OCCCN4CCOCC4)cc23)c1 |  |  |  |  |  | 
